Drawing on patent US8592456B2 (4SC Discovery GmbH, priority 2011, dated 2013), this text covers IC50 for 30 molecules.

Each structure is given as a SMILES string. Some results are limits rather than exact numbers.

The test relates to PBMC (T cell proliferation). Put plainly: T cell proliferation assay, PHA-stimulated human PBMC (BrdU ELISA). In kind it is cell-based. Particulars: human PBMC, 2 μg/ml PHA, 48 hours, BrdU; read-out: D: IC50 (Tcell proliferation). As to the method:
Cell proliferation was analysed using the BrdU based cell proliferation ELISA from Roche (Mannheim, Germany) according to the manufacturer's instructions.
T Cell Proliferation Assay
Peripheral blood mononuclear cells (PBMC) from healthy human donors were isolated by centrifugation over Ficoll-Hypaque (Sigma-Aldrich, Germany) according to manufacturer's instructions. Purified PBMC were washed twice with PBS and resuspended in RPMI1640 culture medium supplemented with 10% dialyzed heat inactivated fetal calf serum, 1.5 mM L-glutamine, 100 U penicillin/ml, and […] (all from PAN Biotech, Aidenbach, Germany). For stimulation, PBMC were seeded at 1×10^5 cells/well, activated with 2 μg/ml phytohaemagglutinin (PHA, Sigma) and incubated with the test compound. After 48 hours proliferation was measured using the BrdU based cell proliferation ELISA from Roche (Mannheim, Germany) according to the manual.
Take `COC(=O)c1c(-c2c(F)cccc2Cl)noc1-c1cnn(-c2cccc(F)c2)c1C(F)(F)C(F)F` [Example 64, methyl 3-(2-chloro-6-fluorophenyl)-5-(1-(3-fluorophenyl)-5-(1,1,2,2-tetrafluoroethyl)-1H-pyrazol-4-yl)isoxazole-4-carboxylate]: the IC50 fell in the range of 1 to 10 µM.

Regarding `COC(=O)c1c(-c2c(F)cccc2Cl)noc1-c1cnn(CC(F)(F)F)c1C(F)(F)F` [Example 65, methyl 3-(2-chloro-6-fluorophenyl)-5-(1-(2,2,2-trifluoroethyl)-5-(trifluoromethyl)-1H-pyrazol-4-yl)isoxazole-4-carboxylate], the IC50 was 0.01 to 0.1 µM.

Consider `COC(=O)c1c(-c2c(F)cccc2Cl)noc1-c1cnn(C(C)C)c1C(F)(F)F` [Example 66, methyl 3-(2-chloro-6-fluorophenyl)-5-(1-isopropyl-5-(trifluoromethyl)-1H-pyrazol-4-yl)isoxazole-4-carboxylate], for which the IC50 is 1 to 10 µM.

Take `COC(=O)c1c(-c2c(F)cccc2Cl)noc1-c1cnn(-c2nccc(C(F)(F)F)n2)c1C(F)(F)F` [Example 67, methyl 3-(2-chloro-6-fluorophenyl)-5-(5-(trifluoromethyl)-1-(4-(trifluoromethyl)pyrimidin-2-yl)-1H-pyrazol-4-yl)isoxazole-4-carboxylate]: the IC50 fell in the range of 0.1 to 1 µM.

In the case of `COC(=O)c1c(-c2c(F)cccc2Cl)noc1-c1cnn(-c2cc(Cl)cc(Cl)c2)c1C(F)(F)F` [Example 68, methyl 3-(2-chloro-6-fluorophenyl)-5-(1-(3,5-dichlorophenyl)-5-(trifluoromethyl)-1H-pyrazol-4-yl)isoxazole-4-carboxylate], the IC50 was in the range of 0.01 to 0.1 µM.

Consider `COC(=O)c1c(-c2c(F)cccc2Cl)noc1-c1cnn(-c2c(Cl)cccc2Cl)c1C(F)(F)F` [Example 70, methyl 3-(2-chloro-6-fluorophenyl)-5-(1-(2,6-dichlorophenyl)-5-(trifluoromethyl)-1H-pyrazol-4-yl)isoxazole-4-carboxylate], for which the IC50 is 0.1 to 1 µM.

As to `CNC(=S)c1c(-c2c(F)cccc2Cl)noc1-c1cnn(-c2cccc(Cl)c2)c1C(F)(F)F` [Example 72, 3-(2-chloro-6-fluorophenyl)-5-(1-(3-chlorophenyl)-5-(trifluoromethyl)-1H-pyrazol-4-yl)-N-methylisoxazole-4-carbothioamide], the IC50 lay within 0.1 to 1 µM.

Take `COC(=O)c1c(-c2ccc(Cl)cc2)noc1-c1cnn(-c2cccc(F)c2)c1C(F)(F)F` [Example 73, methyl 3-(4-chlorophenyl)-5-(1-(3-fluorophenyl)-5-(trifluoromethyl)-1H-pyrazol-4-yl)isoxazole-4-carboxylate]: the IC50 was 1 to 10 µM.

As to `COC(=O)c1c(-c2ccccc2)noc1-c1cnn(-c2ccc(OC(F)(F)F)cc2)c1C(F)(F)F` [Example 74, methyl 3-phenyl-5-(1-(4-(trifluoromethoxy)phenyl)-5-(trifluoromethyl)-1H-pyrazol-4-yl)isoxazole-4-carboxylate], the IC50 is 1 to 10 µM.

With `CNC(=S)c1c(-c2c(F)cccc2Cl)noc1-c1cnn(-c2ccc(F)cc2)c1C(F)(F)F` [Example 76, 3-(2-chloro-6-fluorophenyl)-5-(1-(4-fluorophenyl)-5-(trifluoromethyl)-1H-pyrazol-4-yl)-N-methylisoxazole-4-carbothioamide], the IC50 fell in the range of 1 to 10 µM.

For the molecule `CCOC(=O)c1c(-c2ccc(Cl)cc2)noc1-c1cnn(-c2cccc(Cl)c2)c1C(F)(F)F` [Example 77, ethyl 3-(4-chlorophenyl)-5-(1-(3-chlorophenyl)-5-(trifluoromethyl)-1H-pyrazol-4-yl)isoxazole-4-carboxylate], the IC50 was in the range of 1 to 10 µM.

`COC(=O)c1c(-c2c(F)cccc2Cl)noc1-c1cnn(-c2ccc(C(C)(C)C)cc2)c1C(F)(F)F` [Example 81, methyl 5-(1-(4-tert-butylphenyl)-5-(trifluoromethyl)-1H-pyrazol-4-yl)-3-(2-chloro-6-fluorophenyl)isoxazole-4-carboxylate]: the IC50 was in the range of 1 to 10 µM.

Turning to `COC(=O)c1c(-c2c(F)cccc2Cl)noc1-c1cnn(-c2cccc(C(F)(F)F)c2)c1C(F)(F)F` [Example 82, methyl 3-(2-chloro-6-fluorophenyl)-5-(5-(trifluoromethyl)-1-(3-(trifluoromethyl)phenyl)-1H-pyrazol-4-yl)isoxazole-4-carboxylate], the IC50 fell in the range of 1 to 10 µM.

Regarding `COC(=O)c1c(-c2c(F)cccc2Cl)noc1-c1cnn(-c2ccccn2)c1C(F)(F)F` [Example 84, methyl 3-(2-chloro-6-fluorophenyl)-5-(1-(pyridin-2-yl)-5-(trifluoromethyl)-1H-pyrazol-4-yl)isoxazole-4-carboxylate], the IC50 was less than 0.01 µM.

For `COC(=O)c1c(-c2c(F)cccc2Cl)noc1-c1cnn(-c2ccc(S(C)(=O)=O)cc2)c1C(F)(F)F` [Example 85, methyl 3-(2-chloro-6-fluorophenyl)-5-(1-(4-(methylsulfonyl)phenyl)-5-(trifluoromethyl)-1H-pyrazol-4-yl)isoxazole-4-carboxylate], the IC50 lay within 1 to 10 µM.

For `COC(=O)c1c(-c2c(F)cccc2Cl)noc1-c1cnn(-c2ncc(C(F)(F)F)cc2Cl)c1C(F)(F)F` [Example 87], the IC50 was 1 to 10 µM.

As for `COC(=O)c1c(-c2c(F)cccc2Cl)noc1-c1cnn(-c2ccccc2I)c1C(F)(F)F` [Example 88, methyl 3-(2-chloro-6-fluorophenyl)-5-(1-(2-iodophenyl)-5-(trifluoromethyl)-1H-pyrazol-4-yl)isoxazole-4-carboxylate], the IC50 was in the range of 1 to 10 µM.

For `COC(=O)c1c(-c2c(F)cccc2Cl)noc1-c1cnn(-c2ccccc2F)c1` [Example 89, Methyl 3-(2-chloro-6-fluorophenyl)-5-[1-(2-fluorophenyl)-1H-pyrazol-4-yl]isoxazole-4-carboxylate], the IC50 was in the range of 0.1 to 1 µM.

In the case of `CCOC(=O)c1c(-c2ccccc2F)noc1-c1cnn(-c2cccc(F)c2)c1C(F)(F)F` [Example 90, ethyl 3-(2-fluorophenyl)-5-(1-(3-fluorophenyl)-5-(trifluoromethyl)-1H-pyrazol-4-yl)isoxazole-4-carboxylate], the IC50 is 0.1 to 1 µM.

Turning to `O=C(O)c1c(-c2ccccc2F)noc1-c1cnn(-c2cccc(F)c2)c1C(F)(F)F` [Example 91, 3-(2-fluorophenyl)-5-(1-(3-fluorophenyl)-5-(trifluoromethyl)-1H-pyrazol-4-yl)isoxazole-4-carboxylic acid], the IC50 was 1 to 10 µM.

As to `COC(=O)c1c(-c2ccccc2F)noc1-c1cnn(-c2cccc(F)c2)c1C(F)(F)F` [Example 92, methyl 3-(2-fluorophenyl)-5-(1-(3-fluorophenyl)-5-(trifluoromethyl)-1H-pyrazol-4-yl)isoxazole-4-carboxylate], the IC50 lay in the range of 0.1 to 1 µM.

Consider `CON(C)C(=O)c1c(-c2ccccc2F)noc1-c1cnn(-c2cccc(F)c2)c1C(F)(F)F` [Example 94, 3-(2-fluorophenyl)-5-(1-(3-fluorophenyl)-5-(trifluoromethyl)-1H-pyrazol-4-yl)-N-methoxy-N-methylisoxazole-4-carboxamide], for which the IC50 lay within 1 to 10 µM.

In the case of `COC(=O)c1c(-c2ccccc2Cl)noc1-c1cnn(-c2cccc(F)c2)c1C(F)(F)F` [Example 95, methyl 3-(2-chlorophenyl)-5-(1-(3-fluorophenyl)-5-(trifluoromethyl)-1H-pyrazol-4-yl)isoxazole-4-carboxylate], the IC50 is less than 0.01 µM.

For `CNC(=O)c1c(-c2ccccc2Cl)noc1-c1cnn(-c2cccc(F)c2)c1C(F)(F)F` [Example 96, 3-(2-chlorophenyl)-5-(1-(3-fluorophenyl)-5-(trifluoro-methyl)-1H-pyrazol-4-yl)-N-methylisoxazole-4-carboxamide], the IC50 was 0.1 to 1 µM.

On to `COC(=O)c1c(-c2ccc(Cl)c(Cl)c2)noc1-c1cnn(-c2cccc(F)c2)c1C(F)(F)F` [Example 97, methyl 3-(3,4-dichlorophenyl)-5-(1-(3-fluorophenyl)-5-(trifluoromethyl)-1H-pyrazol-4-yl)isoxazole-4-carboxylate], for which the IC50 fell in the range of 1 to 10 µM.

`COCCn1ncc(-c2onc(-c3c(F)cccc3Cl)c2C(=O)OC)c1C(F)(F)F` [Example 102, methyl 3-(2-chloro-6-fluorophenyl)-5-(1-(2-methoxyethyl)-5-(trifluoromethyl)-H-pyrazol-4-yl)isoxazole-4-carboxylate]: the IC50 lay within 0.1 to 1 µM.

On to `COC(=O)c1c(-c2c(F)cccc2Cl)noc1-c1cnn(C2CCS(=O)(=O)C2)c1C(F)(F)F` (stereo not drawn) [Example 103, methyl 3-(2-chloro-6-fluorophenyl)-5-(1-(3-hydrazinyltetrahydrothiophene 1,1-dioxide)-5-(trifluoromethyl)-1H-pyrazol-4-yl)isoxazole-4-carboxylate], for which the IC50 lay within 0.1 to 1 µM.

Turning to `COC(=O)c1c(-c2cccc(F)c2)noc1-c1cnn(-c2cccc(F)c2)c1C(F)(F)F` [Example 106, methyl 3-(3-fluorophenyl)-5-(1-(3-fluorophenyl)-5-(trifluoromethyl)-1H-pyrazol-4-yl)isoxazole-4-carboxylate], the IC50 lay within 1 to 10 µM.

As to `COC(=O)c1c(-c2ccc(OC)cc2)noc1-c1cnn(-c2cccc(F)c2)c1C(F)(F)F` [Example 107, methyl 5-(1-(3-fluorophenyl)-5-(trifluoromethyl)-1H-pyrazol-4-yl)-3-(4-methoxyphenyl)isoxazole-4-carboxylate], the IC50 fell in the range of 1 to 10 µM.

With `COc1ccc(-c2noc(-c3cnn(-c4cccc(F)c4)c3C(F)(F)F)c2C(=O)O)cc1` [Example 108, 5-(1-(3-fluorophenyl)-5-(trifluoromethyl)-1H-pyrazol-4-yl)-3-(4-methoxyphenyl)isoxazole-4-carboxylic acid], the IC50 was 1 to 10 µM.
